Assay results published in publication PMC4282169 (Nature, 2014).

Target: T1, BoGH5A (Bacteroides ovatus, UniProt A7LXT7)
T1 sequence (A7LXT7 34-502 limits assumed): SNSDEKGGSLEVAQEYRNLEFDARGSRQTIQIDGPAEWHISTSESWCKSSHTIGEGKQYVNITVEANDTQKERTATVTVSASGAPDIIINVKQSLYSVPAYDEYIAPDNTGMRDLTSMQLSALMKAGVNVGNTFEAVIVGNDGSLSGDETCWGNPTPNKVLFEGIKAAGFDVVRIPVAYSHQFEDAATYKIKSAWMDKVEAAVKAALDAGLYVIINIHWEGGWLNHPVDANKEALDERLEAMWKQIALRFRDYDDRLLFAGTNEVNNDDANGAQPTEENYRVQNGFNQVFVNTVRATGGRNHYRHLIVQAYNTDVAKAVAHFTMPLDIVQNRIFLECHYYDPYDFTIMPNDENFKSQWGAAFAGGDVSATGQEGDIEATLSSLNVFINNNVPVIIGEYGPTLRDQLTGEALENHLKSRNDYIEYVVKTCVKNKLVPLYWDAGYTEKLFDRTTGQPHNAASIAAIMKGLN
Test: 2-chloro-4-nitrophenolate release, A405, continuous
Type: biochemical
Settings: read-out: Km (mM) ^‡; 37 °C, 50 mM buffer at or near pH optimum (6.0-7.0)

O=[N+]([O-])c1ccc(O[C@@H]2O[C@H](CO)[C@@H](O[C@@H]3O[C@H](CO[C@H]4OC[C@@H](O)[C@H](O)[C@H]4O[C@@H]4O[C@H](CO)[C@H](O)[C@H](O)[C@H]4O)[C@@H](O[C@@H]4O[C@H](CO[C@H]5OC[C@@H](O)[C@H](O)[C@H]5O[C@@H]5O[C@H](CO)[C@H](O)[C@H](O)[C@H]5O)[C@@H](O[C@@H]5O[C@H](CO[C@H]6OC[C@@H](O)[C@H](O)[C@H]6O)[C@@H](O)[C@H](O)[C@H]5O)[C@H](O)[C@H]4O)[C@H](O)[C@H]3O)[C@H](O)[C@H]2O)c(Cl)c1 [XLLG-β-CNP]
Km: 0.145 ± 0.024 mM
